According to PubChem BioAssay (NCI):
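Test compounds were applied to cells in 96-well plates for 48 hours at 5 doses. GI50: concentration for 50% inhibition of growth. Definition used: TGI = concentration required for complete inhibition of growth.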

Experiments:
Assay in all cases: NCI tumour cell line growth inhibition, 48 h
[1] = tested on: SN12C renal
[2] = tested on: SNB-19 CNS
[3] = tested on: CCRF-CEM leukemia
[4] = tested on: MDA-MB-435
[5] = tested on: HCT-15 colon
[6] = tested on: HL-60(TB) leukemia
[7] = tested on: K-562 leukemia
[8] = tested on: MCF7 breast
[9] = tested on: SF-295 CNS
[10] = tested on: SK-MEL-5 melanoma
[11] = tested on: LOX IMVI melanoma
[12] = tested on: EKVX NSCLC
[13] = tested on: OVCAR-8 ovarian
[14] = tested on: A549 NSCLC
[15] = tested on: NCI-H460 lung
[16] = tested on: MDA-MB-231 breast
[17] = tested on: HS 578T breast
[18] = tested on: HT29 colon
[19] = tested on: MOLT-4 leukemia
[20] = tested on: BT-549 breast
[21] = tested on: OVCAR-5 ovarian
[22] = tested on: SK-MEL-2 melanoma
[23] = tested on: SF-539 CNS
[24] = tested on: DU-145 prostate
[25] = tested on: SR leukemia
[26] = tested on: NCI/ADR-RES ovarian
[27] = tested on: UO-31 renal
[28] = tested on: NCI-H226 lung
[29] = tested on: SF-268 CNS
[30] = tested on: SK-MEL-28 melanoma
[31] = tested on: COLO 205 colon
[32] = tested on: TK-10 renal
[33] = tested on: OVCAR-4 ovarian
[34] = tested on: PC-3 prostate
[35] = tested on: HCT-116 colon
[36] = tested on: A498 renal
[37] = tested on: NCI-H522 lung
[38] = tested on: CAKI-1 renal
[39] = tested on: SK-OV-3 ovarian
[40] = tested on: ACHN renal
[41] = tested on: HOP-62 NSCLC
[42] = tested on: RXF 393 renal
[43] = tested on: KM12 colon
[44] = tested on: U251 CNS
[45] = tested on: M14 melanoma
[46] = tested on: 786-0 renal
[47] = tested on: UACC-62 melanoma
[48] = tested on: HOP-92 NSCLC
[49] = tested on: UACC-257 melanoma
[50] = tested on: RPMI-8226 leukemia
[51] = tested on: IGROV1 ovarian
[52] = tested on: HCC-2998 colon
[53] = tested on: SW-620 colon
[54] = tested on: NCI-H23 lung
[55] = tested on: OVCAR-3 ovarian
[56] = tested on: MALME-3M melanoma
[57] = tested on: SNB-75 CNS

COc1cc2c(cc1OCCCN1CCN(C)CC1)N=C[C@@H]1CCCN1C2=O
TGI [1]: > 100 µM
TGI [2]: > 100 µM
TGI [3]: 10.6 µM
TGI [4]: 3.77 µM
TGI [5]: 7.02 µM
TGI [6]: 5.37 µM
TGI [7]: 14.2 µM
TGI [8]: > 100 µM
TGI [9]: 5.37 µM
TGI [10]: 9.29 µM
TGI [11]: 4.38 µM
TGI [12]: 6.02 µM
TGI [13]: 8.79 µM
TGI [14]: 5.94 µM
TGI [15]: > 100 µM
TGI [16]: 22.3 µM
TGI [17]: > 100 µM
TGI [18]: 4.99 µM
TGI [19]: 2.53 µM
TGI [20]: 6.59 µM
TGI [21]: 7.01 µM
TGI [22]: 7.41 µM
TGI [23]: 4.97 µM
TGI [24]: 5.98 µM
TGI [25]: 0.839 µM
TGI [26]: 21.1 µM
TGI [27]: > 100 µM
TGI [28]: 4.62 µM
TGI [29]: > 100 µM
TGI [30]: 3.97 µM
TGI [31]: 2.25 µM
TGI [32]: > 100 µM
TGI [33]: 4.78 µM
TGI [34]: 9.78 µM
TGI [35]: 9.47 µM
TGI [36]: 5.75 µM
TGI [37]: 0.518 µM
TGI [38]: 3.12 µM
TGI [39]: 23.2 µM
TGI [40]: 6.12 µM
TGI [41]: 9.64 µM
TGI [42]: 6.03 µM
TGI [43]: 4.95 µM
TGI [44]: 14.5 µM
TGI [45]: 4.99 µM
TGI [46]: 18.3 µM
TGI [47]: 3.75 µM
TGI [48]: 4.65 µM
TGI [49]: 5.68 µM
TGI [50]: 3.68 µM

C=C1C(O)C2C(=C(CCC3CC3)C13CC3)C(=O)C(C)(C)C2O (configuration not stated)
GI50 [1]: 71.3 µM
TGI [1]: > 100 µM
GI50 [2]: > 100 µM
TGI [2]: > 100 µM
GI50 [3]: > 100 µM
TGI [3]: > 100 µM
GI50 [4]: > 100 µM
TGI [4]: > 100 µM
GI50 [5]: > 100 µM
TGI [5]: > 100 µM
GI50 [51]: > 100 µM
TGI [51]: > 100 µM
GI50 [6]: > 100 µM
TGI [6]: > 100 µM
GI50 [7]: 61.3 µM
TGI [7]: > 100 µM
GI50 [8]: 58.7 µM
TGI [8]: > 100 µM
GI50 [9]: 55.8 µM
TGI [9]: > 100 µM
GI50 [10]: 42.1 µM
TGI [10]: > 100 µM
GI50 [11]: > 100 µM
TGI [11]: > 100 µM
GI50 [12]: > 100 µM
TGI [12]: > 100 µM
GI50 [13]: > 100 µM
TGI [13]: > 100 µM
GI50 [14]: > 100 µM
TGI [14]: > 100 µM
GI50 [15]: 80.9 µM
TGI [15]: > 100 µM
GI50 [16]: 29.1 µM
TGI [16]: 99 µM
GI50 [17]: 25.7 µM
TGI [17]: > 100 µM
GI50 [52]: > 100 µM
TGI [52]: > 100 µM
GI50 [18]: > 100 µM
TGI [18]: > 100 µM
GI50 [19]: 44.3 µM
TGI [19]: > 100 µM
GI50 [20]: > 100 µM
TGI [20]: > 100 µM
GI50 [21]: > 100 µM
TGI [21]: > 100 µM
GI50 [22]: > 100 µM
TGI [22]: > 100 µM
GI50 [23]: > 100 µM
TGI [23]: > 100 µM
GI50 [53]: > 100 µM
TGI [53]: > 100 µM
GI50 [24]: > 100 µM
TGI [24]: > 100 µM
GI50 [25]: 32.1 µM
TGI [25]: > 100 µM
GI50 [26]: > 100 µM
TGI [26]: > 100 µM
GI50 [27]: > 100 µM
TGI [27]: > 100 µM
GI50 [28]: > 100 µM
TGI [28]: > 100 µM
GI50 [29]: > 100 µM
TGI [29]: > 100 µM
GI50 [30]: 76.2 µM
TGI [30]: > 100 µM
GI50 [31]: > 100 µM
TGI [31]: > 100 µM
GI50 [32]: > 100 µM
TGI [32]: > 100 µM
GI50 [33]: > 100 µM
TGI [33]: > 100 µM
GI50 [34]: 92.3 µM
TGI [34]: > 100 µM
GI50 [54]: 76.2 µM
TGI [54]: > 100 µM
GI50 [35]: > 100 µM
TGI [35]: > 100 µM
GI50 [55]: 59.5 µM
TGI [55]: > 100 µM
GI50 [56]: > 100 µM
TGI [56]: > 100 µM
GI50 [37]: 60.4 µM
TGI [37]: > 100 µM
GI50 [38]: 45.8 µM
TGI [38]: > 100 µM
GI50 [39]: 30.1 µM
TGI [39]: > 100 µM
GI50 [40]: > 100 µM
TGI [40]: > 100 µM
GI50 [41]: > 100 µM
TGI [41]: > 100 µM
GI50 [42]: 32.9 µM
TGI [42]: > 100 µM
GI50 [57]: 23.2 µM
TGI [57]: > 100 µM
GI50 [43]: > 100 µM
TGI [43]: > 100 µM
GI50 [44]: 89.9 µM
TGI [44]: > 100 µM
GI50 [45]: > 100 µM
TGI [45]: > 100 µM
GI50 [46]: > 100 µM
TGI [46]: > 100 µM
GI50 [47]: 87.4 µM
TGI [47]: > 100 µM
GI50 [48]: 34.2 µM
TGI [48]: > 100 µM
GI50 [49]: 71.3 µM
TGI [49]: > 100 µM
GI50 [50]: 43.7 µM
TGI [50]: > 100 µM

CNCCCNc1nc2ccccc2c2c(=O)c3cc(F)ccc3sc12
GI50 [1]: 1.61 µM
TGI [1]: 3.05 µM
GI50 [2]: 1.65 µM
TGI [2]: 3.11 µM
GI50 [3]: 1.8 µM
TGI [3]: 4.34 µM
GI50 [4]: 1.59 µM
TGI [4]: 2.94 µM
GI50 [5]: 1.42 µM
TGI [5]: 2.76 µM
GI50 [51]: 1.37 µM
TGI [51]: 2.76 µM
GI50 [6]: 1.81 µM
TGI [6]: 3.69 µM
GI50 [7]: 1.9 µM
TGI [7]: 5.08 µM
GI50 [8]: 1.41 µM
TGI [8]: 2.95 µM
GI50 [9]: 1.81 µM
TGI [9]: 3.23 µM
GI50 [10]: 1.69 µM
TGI [10]: 3.07 µM
GI50 [11]: 1.47 µM
TGI [11]: 2.8 µM
GI50 [12]: 1.55 µM
TGI [12]: 2.94 µM
GI50 [14]: 1.66 µM
TGI [14]: 3.61 µM
GI50 [15]: 1.38 µM
TGI [15]: 2.67 µM
GI50 [16]: 1.33 µM
TGI [16]: 2.7 µM
GI50 [17]: 1.45 µM
TGI [17]: 3.11 µM
GI50 [52]: 1.68 µM
TGI [52]: 3.29 µM
GI50 [18]: 1.65 µM
TGI [18]: 3.45 µM
GI50 [20]: 1.79 µM
TGI [20]: 3.32 µM
GI50 [21]: 1.62 µM
TGI [21]: 3.03 µM
GI50 [22]: 1.94 µM
TGI [22]: 3.65 µM
GI50 [23]: 1.74 µM
TGI [23]: 3.16 µM
GI50 [53]: 1.48 µM
TGI [53]: 2.85 µM
GI50 [24]: 1.66 µM
TGI [24]: 3.03 µM
GI50 [27]: 1.31 µM
TGI [27]: 2.58 µM
GI50 [28]: 1.72 µM
TGI [28]: 3.28 µM
GI50 [29]: 1.47 µM
TGI [29]: 2.99 µM
GI50 [30]: 1.83 µM
TGI [30]: 3.25 µM
GI50 [31]: 1.77 µM
TGI [31]: 3.78 µM
GI50 [32]: 1.8 µM
TGI [32]: 3.41 µM
GI50 [33]: 1.69 µM
TGI [33]: 3.25 µM
GI50 [34]: 1.64 µM
TGI [34]: 3.25 µM
GI50 [54]: 1.69 µM
TGI [54]: 3.15 µM
GI50 [35]: 1.5 µM
TGI [35]: 2.92 µM
GI50 [55]: 1.56 µM
TGI [55]: 2.95 µM
GI50 [36]: 1.35 µM
TGI [36]: 2.7 µM
GI50 [56]: 1.55 µM
TGI [56]: 3.01 µM
GI50 [37]: 1.86 µM
TGI [37]: 3.73 µM
GI50 [38]: 1.48 µM
TGI [38]: 2.8 µM
GI50 [40]: 1.49 µM
TGI [40]: 2.81 µM
GI50 [41]: 1.5 µM
TGI [41]: 3.23 µM
GI50 [42]: 1.34 µM
TGI [42]: 2.75 µM
GI50 [57]: 1.41 µM
TGI [57]: 2.76 µM
GI50 [43]: 1.63 µM
TGI [43]: 3.1 µM
GI50 [45]: 1.72 µM
TGI [45]: 3.22 µM
GI50 [46]: 1.44 µM
TGI [46]: 2.87 µM
GI50 [47]: 1.76 µM
TGI [47]: 3.17 µM
GI50 [48]: 1.02 µM
TGI [48]: 2.42 µM
GI50 [49]: 1.92 µM
TGI [49]: 3.74 µM
